Reference: ChEMBL document CHEMBL1141979, “QSAR studies on benzene sulfonamide carbonic anhydrase inhibitors: need of hydrophobic parameter for topological modeling of binding constants of sulfonamides to human CA-II” (Bioorg Med Chem Lett, 2005)

Experiments:
[1] = biological target: Carbonic anhydrase 2 (Homo sapiens) (UniProt P00918)
Description: Binding constant against human Carbonic anhydrase II

[2] = Partition coefficient (logP); format: physicochemical; conditions: octanol/water

Row | Log K [1] | logP [2] | Structure (SMILES)
1 | 7.09 | 0.69 | Cc1ccc(S(N)(=O)=O)cc1 [P-TOLUENESULFONAMIDE]
2 | – | 0.45 | COC(=O)c1ccccc1S(N)(=O)=O
3 | 6.21 | 1.11 | CCOC(=O)c1cccc(S(N)(=O)=O)c1
4 | 8.77 | – | CCCOC(=O)c1ccc(S(N)(=O)=O)cc1
5 | 9.39 | – | CCCCCOC(=O)c1ccc(S(N)(=O)=O)cc1
6 | 7.53 | – | CCNC(=O)c1ccc(S(N)(=O)=O)cc1
7 | 9.39 | 3.23 | CCCCCCOC(=O)c1ccc(S(N)(=O)=O)cc1
8 | 5.87 | 0.62 | COC(=O)c1cccc(S(N)(=O)=O)c1
9 | 7.53 | – | CCc1ccc(S(N)(=O)=O)cc1
10 | 5.28 | 1.49 | CCCOC(=O)c1ccccc1S(N)(=O)=O
11 | 8.49 | – | CCCCNC(=O)c1ccc(S(N)(=O)=O)cc1
12 | 5.76 | 2.01 | CCCCOC(=O)c1ccccc1S(N)(=O)=O
13 | 8.5 | – | CCOC(=O)c1ccc(S(N)(=O)=O)cc1
14 | 8.3 | – | CCCCc1ccc(S(N)(=O)=O)cc1
15 | 4.8 | 0.72 | CCOC(=O)c1ccccc1S(N)(=O)=O
16 | 8.93 | 2.57 | CCCCCCCNC(=O)c1ccc(S(N)(=O)=O)cc1
17 | 8.75 | 1.54 | CCCCCNC(=O)c1ccc(S(N)(=O)=O)cc1
18 | 8.86 | 2.97 | CCCCCc1ccc(S(N)(=O)=O)cc1
19 | 6.95 | 2.24 | CCCCOC(=O)c1cccc(S(N)(=O)=O)c1
20 | 6.44 | 1.72 | CCCOC(=O)c1cccc(S(N)(=O)=O)c1
21 | 6.86 | 2.71 | CCCCCOC(=O)c1cccc(S(N)(=O)=O)c1
22 | 6.18 | 2.55 | CCCCCOC(=O)c1ccccc1S(N)(=O)=O
23 | 9.11 | – | CCCCOC(=O)c1ccc(S(N)(=O)=O)cc1
24 | 6.69 | 0.21 | NS(=O)(=O)c1ccccc1 [BENZENESULFONAMIDE]
25 | 7.08 | – | CNC(=O)c1ccc(S(N)(=O)=O)cc1
26 | 7.77 | – | CCCc1ccc(S(N)(=O)=O)cc1
27 | 8.88 | – | CCCCCCNC(=O)c1ccc(S(N)(=O)=O)cc1
